ChEMBL document CHEMBL5380795, “Design, Synthesis, and Bioactivity Investigation of Cyclic Lipopeptide Antibiotics Containing Eight to Nine Amino Acids” (J Med Chem, 2023)
Values after ≈ are worked out from the molar mass of the structure shown. One block for each compound: values may come before it. Bridge positions count the residues as written; N and C are the ends. Square brackets hold non-standard residues; d marks the D form. Peptide text beside a SMILES is read from it. * marks the point of attachment. X1 = CC[C@H](C)CCCCC(=O)*; Dab = NCC[C@H](N)C(=O)O

Key:
Acinetobacter baumannii [1] = experiment: Antibacterial activity against Acinetobacter baumannii; format: functional
Klebsiella pneumoniae [2] = experiment: Antibacterial activity against Klebsiella pneumoniae; format: functional
Pseudomonas aeruginosa [3] = experiment: Antibacterial activity against Pseudomonas aeruginosa; format: functional
Escherichia coli [4] = experiment: Antibacterial activity against Escherichia coli; format: functional
Pseudomonas aeruginosa [5] = experiment: Antibacterial activity against carbapenem resistant Pseudomonas aeruginosa clinical isolate 19-3 assessed as inhibition of bacterial growth incubated for 18 to 24 hrs by broth microdilution method; format: functional; conditions: time 18-24 hrs
Escherichia coli [6] = experiment: Antibacterial activity against Escherichia coli clinical isolate 19-2 assessed as inhibition of bacterial growth incubated for 18 to 24 hrs by broth microdilution method; format: functional; conditions: time 18-24 hrs
Acinetobacter baumannii [7] = experiment: Antibacterial activity against oxacillinase-27 producing Acinetobacter baumannii NCTC 13304 assessed as inhibition of bacterial growth incubated for 18 to 24 hrs by broth microdilution method; format: functional; conditions: time 18-24 hrs
Pseudomonas aeruginosa [8] = experiment: Antibacterial activity against Pseudomonas aeruginosa ATCC 27853 assessed as inhibition of bacterial growth incubated for 18 to 24 hrs by broth microdilution method; format: functional; conditions: time 18-24 hrs
Staphylococcus aureus [9] = experiment: Antibacterial activity against methicillin resistant Staphylococcus aureus ATCC 33591 assessed as inhibition of bacterial growth incubated for 18 to 24 hrs by broth microdilution method; format: functional; conditions: time 18-24 hrs
Klebsiella pneumoniae [10] = experiment: Antibacterial activity against carbapenem resistant Klebsiella pneumoniae clinical isolate 19-17 assessed as inhibition of bacterial growth incubated for 18 to 24 hrs by broth microdilution method; format: functional; conditions: time 18-24 hrs
[11] = system: Staphylococcus epidermidis; experiment: Antibacterial activity against methicillin resistant Staphylococcus epidermidis clinical isolate 19-5 assessed as inhibition of bacterial growth incubated for 18 to 24 hrs by broth microdilution method; format: functional; conditions: time 18-24 hrs
Klebsiella pneumoniae [12] = experiment: Antibacterial activity against carbapenem resistant Klebsiella pneumoniae clinical isolate 19-15 assessed as inhibition of bacterial growth incubated for 18 to 24 hrs by broth microdilution method; format: functional; conditions: time 18-24 hrs
Staphylococcus aureus [13] = experiment: Antibacterial activity against Staphylococcus aureus ATCC 29213 assessed as inhibition of bacterial growth incubated for 18 to 24 hrs by broth microdilution method; format: functional; conditions: time 18-24 hrs
Escherichia coli [14] = experiment: Antibacterial activity against Escherichia coli ATCC BAA-2523 assessed as inhibition of bacterial growth incubated for 18 to 24 hrs by broth microdilution method; format: functional; conditions: time 18-24 hrs
Escherichia coli [15] = experiment: Antibacterial activity against KPC producing Escherichia coli ATCC BAA-2340 assessed as inhibition of bacterial growth incubated for 18 to 24 hrs by broth microdilution method; format: functional; conditions: time 18-24 hrs
Acinetobacter baumannii [16] = experiment: Antibacterial activity against carbapenem resistant Acinetobacter baumannii clinical isolate 19-8 assessed as inhibition of bacterial growth incubated for 18 to 24 hrs by broth microdilution method; format: functional; conditions: time 18-24 hrs
Pseudomonas aeruginosa [17] = experiment: Antibacterial activity against Pseudomonas aeruginosa clinical isolate 19-1 assessed as inhibition of bacterial growth incubated for 18 to 24 hrs by broth microdilution method; format: functional; conditions: time 18-24 hrs
[18] = system: Staphylococcus epidermidis; experiment: Antibacterial activity against methicillin resistant Staphylococcus epidermidis clinical isolate 19-6 assessed as inhibition of bacterial growth incubated for 18 to 24 hrs by broth microdilution method; format: functional; conditions: time 18-24 hrs
Pseudomonas aeruginosa [19] = experiment: Antibacterial activity against carbapenem resistant Pseudomonas aeruginosa clinical isolate 17-1 assessed as inhibition of bacterial growth incubated for 18 to 24 hrs by broth microdilution method; format: functional; conditions: time 18-24 hrs
Escherichia coli [20] = experiment: Antibacterial activity against Escherichia coli NCTC 13353 assessed as inhibition of bacterial growth incubated for 18 to 24 hrs by broth microdilution method; format: functional; conditions: time 18-24 hrs
Klebsiella pneumoniae [21] = experiment: Antibacterial activity against KPC producing Klebsiella pneumoniae ATCC BAA-1705 assessed as inhibition of bacterial growth incubated for 18 to 24 hrs by broth microdilution method; format: functional; conditions: time 18-24 hrs
[22] = Cytotoxicity against human HK-2 cells assessed as inhibition of cell growth incubated for 72 hrs by CCK-8 assay; format: toxicity, cell-based
[23] = Selectivity index, ratio of IC50 for cytotoxicity against human HK-2 cells to MIC for antibacterial activity against Escherichia coli ATCC BAA-2523; format: toxicity, cell-based

MIC (Acinetobacter baumannii [1]): 1 µg/mL (≈ 0.855 µM) | MIC (Klebsiella pneumoniae [2]): 1 µg/mL (≈ 0.855 µM) | MIC (Pseudomonas aeruginosa [3]): 0.2 µg/mL (≈ 0.171 µM) | MIC (Escherichia coli [4]): 0.05 µg/mL (≈ 0.0428 µM)
SMILES: CC[C@H](C)CCCCC(=O)N[C@@H](CCN)C(=O)N[C@H](C(=O)N[C@@H](CCN)C(=O)N[C@H]1CCNC(=O)[C@H]([C@@H](C)O)NC(=O)[C@H](CCN)NC(=O)[C@H](CCN)NC(=O)[C@H](CC(C)C)NC(=O)[C@@H](CC(C)C)NC(=O)[C@H](CCN)NC1=O)[C@@H](C)O (X1-[Dab]T[Dab][Dab][Dab][dL]L[Dab][Dab]T; lactam 4-C)

SMILES: CC[C@H](C)CCCCC(=O)N[C@H](CCN)C(=O)N[C@H]1CCNC(=O)[C@H](CC(C)C)NC(=O)[C@H](CCN)NC(=O)[C@H](CCN)NC(=O)[C@H](CC(C)C)NC(=O)[C@@H](CC(C)C)NC(=O)[C@H](CCN)NC1=O
MIC (Pseudomonas aeruginosa [5]): 2 µg/mL (≈ 2.04 µM) | MIC (Escherichia coli [6]): 32 µg/mL (≈ 32.6 µM) | MIC (Acinetobacter baumannii [7]): 8 µg/mL (≈ 8.16 µM) | MIC (Pseudomonas aeruginosa [8]): 1 µg/mL (≈ 1.02 µM) | MIC (Staphylococcus aureus [9]): > 64 µg/mL | MIC (Klebsiella pneumoniae [10]): 8 µg/mL (≈ 8.16 µM) | MIC [11]: 4 µg/mL (≈ 4.08 µM) | MIC (Klebsiella pneumoniae [12]): 8 µg/mL (≈ 8.16 µM) | MIC (Staphylococcus aureus [13]): > 64 µg/mL | MIC (Escherichia coli [14]): 8 µg/mL (≈ 8.16 µM) | MIC (Escherichia coli [15]): 1 µg/mL (≈ 1.02 µM) | MIC (Acinetobacter baumannii [16]): 8 µg/mL (≈ 8.16 µM) | MIC (Pseudomonas aeruginosa [17]): 2 µg/mL (≈ 2.04 µM) | MIC [18]: 16 µg/mL (≈ 16.3 µM) | MIC (Pseudomonas aeruginosa [19]): 1 µg/mL (≈ 1.02 µM) | MIC (Escherichia coli [20]): 16 µg/mL (≈ 16.3 µM) | MIC (Klebsiella pneumoniae [21]): 1 µg/mL (≈ 1.02 µM) | IC50 at 72 h [22]: 86.9 µg/mL (≈ 88.6 µM) | selectivity ratio [23]: 10.9

SMILES: CCCCCCCC(=O)N[C@H](CCN)C(=O)N[C@H]1CCNC(=O)[C@H](CC(C)C)NC(=O)[C@H](CCN)NC(=O)[C@H](CCN)NC(=O)[C@H](CC(C)C)NC(=O)[C@@H](CC(C)C)NC(=O)[C@H](CCN)NC1=O
MIC (Pseudomonas aeruginosa [5]): 4 µg/mL (≈ 4.14 µM) | MIC (Escherichia coli [6]): 32 µg/mL (≈ 33.1 µM) | MIC (Acinetobacter baumannii [7]): 8 µg/mL (≈ 8.28 µM) | MIC (Pseudomonas aeruginosa [8]): 1 µg/mL (≈ 1.03 µM) | MIC (Staphylococcus aureus [9]): > 64 µg/mL | MIC (Klebsiella pneumoniae [10]): 16 µg/mL (≈ 16.6 µM) | MIC [11]: 8 µg/mL (≈ 8.28 µM) | MIC (Klebsiella pneumoniae [12]): 16 µg/mL (≈ 16.6 µM) | MIC (Staphylococcus aureus [13]): > 64 µg/mL | MIC (Escherichia coli [14]): 32 µg/mL (≈ 33.1 µM) | MIC (Escherichia coli [15]): 2 µg/mL (≈ 2.07 µM) | MIC (Acinetobacter baumannii [16]): 16 µg/mL (≈ 16.6 µM) | MIC (Pseudomonas aeruginosa [17]): 8 µg/mL (≈ 8.28 µM) | MIC [18]: 64 µg/mL (≈ 66.2 µM) | MIC (Pseudomonas aeruginosa [19]): 2 µg/mL (≈ 2.07 µM) | MIC (Escherichia coli [20]): 16 µg/mL (≈ 16.6 µM) | MIC (Klebsiella pneumoniae [21]): 2 µg/mL (≈ 2.07 µM) | IC50 at 72 h [22]: 198 µg/mL (≈ 205 µM) | selectivity ratio [23]: 6.2

SMILES: CCCCCCCCCC(=O)N[C@H](CCN)C(=O)N[C@H]1CCNC(=O)[C@H]([C@@H](C)O)NC(=O)[C@H](CCN)NC(=O)[C@H](CCN)NC(=O)[C@H](CC(C)C)NC(=O)[C@@H](CC(C)C)NC(=O)[C@H](CCCN)NC1=O
MIC (Pseudomonas aeruginosa [5]): > 64 µg/mL | MIC (Escherichia coli [6]): > 64 µg/mL | MIC (Acinetobacter baumannii [7]): > 64 µg/mL | MIC (Pseudomonas aeruginosa [8]): > 64 µg/mL | MIC (Staphylococcus aureus [9]): > 64 µg/mL | MIC (Klebsiella pneumoniae [10]): > 64 µg/mL | MIC [11]: 4 µg/mL (≈ 4.01 µM) | MIC (Klebsiella pneumoniae [12]): > 64 µg/mL | MIC (Staphylococcus aureus [13]): > 64 µg/mL | MIC (Escherichia coli [14]): > 64 µg/mL | MIC (Escherichia coli [15]): > 64 µg/mL | MIC (Acinetobacter baumannii [16]): > 64 µg/mL | MIC (Pseudomonas aeruginosa [17]): > 64 µg/mL | MIC [18]: 32 µg/mL (≈ 32.1 µM) | MIC (Pseudomonas aeruginosa [19]): > 64 µg/mL | MIC (Escherichia coli [20]): > 64 µg/mL | MIC (Klebsiella pneumoniae [21]): > 64 µg/mL | IC50 at 72 h [22]: 277 µg/mL (≈ 278 µM) | selectivity ratio [23]: < 4.3

SMILES: CCCCCCC[C@H](O)CC(=O)N[C@H](CCN)C(=O)N[C@H]1CCNC(=O)[C@H](CC(C)C)NC(=O)[C@H](CCN)NC(=O)[C@H](CCN)NC(=O)[C@H](CC(C)C)NC(=O)[C@@H](CC(C)C)NC(=O)[C@H](CCN)NC1=O
MIC (Pseudomonas aeruginosa [5]): 4 µg/mL (≈ 3.96 µM) | MIC (Escherichia coli [6]): 8 µg/mL (≈ 7.92 µM) | MIC (Acinetobacter baumannii [7]): 1 µg/mL (≈ 0.99 µM) | MIC (Pseudomonas aeruginosa [8]): 1 µg/mL (≈ 0.99 µM) | MIC (Staphylococcus aureus [9]): > 64 µg/mL | MIC (Klebsiella pneumoniae [10]): 8 µg/mL (≈ 7.92 µM) | MIC [11]: 2 µg/mL (≈ 1.98 µM) | MIC (Klebsiella pneumoniae [12]): 8 µg/mL (≈ 7.92 µM) | MIC (Staphylococcus aureus [13]): > 64 µg/mL | MIC (Escherichia coli [14]): 4 µg/mL (≈ 3.96 µM) | MIC (Escherichia coli [15]): 2 µg/mL (≈ 1.98 µM) | MIC (Acinetobacter baumannii [16]): 2 µg/mL (≈ 1.98 µM) | MIC (Pseudomonas aeruginosa [17]): 2 µg/mL (≈ 1.98 µM) | MIC [18]: 16 µg/mL (≈ 15.8 µM) | MIC (Pseudomonas aeruginosa [19]): 2 µg/mL (≈ 1.98 µM) | MIC (Escherichia coli [20]): 8 µg/mL (≈ 7.92 µM) | MIC (Klebsiella pneumoniae [21]): 4 µg/mL (≈ 3.96 µM) | IC50 at 72 h [22]: 77.6 µg/mL (≈ 76.8 µM) | selectivity ratio [23]: 19.4
